Non-standard residues stand in square brackets, D forms with d. Residues, ends and D or L forms follow the SMILES beside them. *: point of attachment. Dolaproine = CO[C@@H]([C@@H]1CCCN1)[C@@H](C)C(=O)O; Dil = CC[C@H](C)[C@H](NC)[C@@H](CC(=O)O)OC; X1 = C[C@@H](N*)[C@@H](O)c1ccccc1; NMeV = CN[C@H](C(=O)O)C(C)C
What was measured:
CYP3A4 = CYP3A4 (Homo sapiens, UniProt P08684); conditions: cited from earlier work
[1] = target: permeability glycoprotein (Pgp) (Homo sapiens, UniProt P08183); conditions: cited from earlier work
permeability glycoprotein (Pgp), sequence (P08183 whole entry): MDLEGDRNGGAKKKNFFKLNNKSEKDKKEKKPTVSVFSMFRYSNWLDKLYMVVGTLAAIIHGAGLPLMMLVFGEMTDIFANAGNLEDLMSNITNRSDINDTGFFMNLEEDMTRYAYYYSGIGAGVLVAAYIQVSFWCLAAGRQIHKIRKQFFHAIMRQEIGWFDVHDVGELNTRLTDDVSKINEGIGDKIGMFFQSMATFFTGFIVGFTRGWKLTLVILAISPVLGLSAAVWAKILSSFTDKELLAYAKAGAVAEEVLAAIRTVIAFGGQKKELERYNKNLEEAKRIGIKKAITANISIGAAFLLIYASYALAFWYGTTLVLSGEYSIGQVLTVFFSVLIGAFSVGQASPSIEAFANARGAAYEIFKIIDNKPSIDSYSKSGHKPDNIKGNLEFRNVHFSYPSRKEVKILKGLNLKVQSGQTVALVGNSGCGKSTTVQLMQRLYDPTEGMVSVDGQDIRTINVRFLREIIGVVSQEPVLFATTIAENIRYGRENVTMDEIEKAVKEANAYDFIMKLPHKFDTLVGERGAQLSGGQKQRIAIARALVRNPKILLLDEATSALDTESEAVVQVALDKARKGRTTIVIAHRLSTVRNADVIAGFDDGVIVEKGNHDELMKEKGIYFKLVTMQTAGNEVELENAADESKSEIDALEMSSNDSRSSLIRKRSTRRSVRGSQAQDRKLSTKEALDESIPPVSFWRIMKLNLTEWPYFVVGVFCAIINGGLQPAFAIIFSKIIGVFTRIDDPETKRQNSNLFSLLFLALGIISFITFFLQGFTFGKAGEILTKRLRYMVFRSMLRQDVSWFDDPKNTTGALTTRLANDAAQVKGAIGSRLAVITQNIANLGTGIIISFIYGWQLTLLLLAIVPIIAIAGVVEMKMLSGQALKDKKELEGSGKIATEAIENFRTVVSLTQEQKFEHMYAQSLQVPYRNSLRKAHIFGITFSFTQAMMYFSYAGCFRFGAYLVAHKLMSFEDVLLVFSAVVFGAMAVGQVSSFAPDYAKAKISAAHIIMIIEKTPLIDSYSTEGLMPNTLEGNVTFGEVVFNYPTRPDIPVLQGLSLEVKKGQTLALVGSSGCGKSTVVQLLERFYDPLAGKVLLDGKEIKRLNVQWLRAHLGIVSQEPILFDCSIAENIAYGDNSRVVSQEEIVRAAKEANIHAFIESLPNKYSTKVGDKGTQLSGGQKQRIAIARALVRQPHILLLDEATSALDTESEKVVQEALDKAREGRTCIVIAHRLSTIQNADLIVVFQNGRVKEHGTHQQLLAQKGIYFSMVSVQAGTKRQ

naïve CD8 T cells = experiment: Free MMAE titration on activated T cell populations, viable cell counts; type: cell-based; conditions: Naïve CDS; CD3/CD28 beads and IL-2 (10 ng/ml), 4 days; cell counts relative to untreated control
Procedure: (§1) To evaluate the effect of free MMAE on the various T cell populations, naïve (CD45RA+, CD45RO−) and memory (CD45RA−, CD45RO+) CD4 and CD8 T cells and CD25^hi CD127^lo T regulatory cells were enriched from healthy donor leukopaks and activated with CD3/CD28 beads and IL-2 (10 ng/ml) in round-bottom 96-well tissue culture plates for 4 days with a titration of free monomethyl auristatin E (MMAE). […] Data are represented as cell counts relative to untreated control.

naïve CD4 T cells = experiment: as above; type: cell-based; conditions: CD3/CD28 beads and IL-2 (10 ng/ml), 4 days, cell counts relative to untreated control
Procedure: as §1

[2] = test system: T regulatory cells (Treg); experiment: as above; type: cell-based; conditions: CD3/CD28 beads and IL-2 (10 ng/ml), 4 days, cell counts relative to untreated control
Procedure: as §1

memory CD8 T cells = experiment: as above; type: cell-based; conditions: Memory CDS; CD3/CD28 beads and IL-2 (10 ng/ml), 4 days; cell counts relative to untreated control
Procedure: as §1

memory CD4 T cells [3] = experiment: as above; type: cell-based; conditions: CD3/CD28 beads and IL-2 (10 ng/ml), 4 days, cell counts relative to untreated control
Procedure: as §1

CD30+ cell lines = conditions: in vitro; cited from earlier work
[4] = test system: Hodgkin disease xenograft; conditions: SCID mouse xenograft models of Hodgkin disease; cited from earlier work
Tregs = conditions: subjects with CD30+ lymphomas; cited from earlier work
memory CD4 T cells [5] = experiment: Effect of BV on activated T cell viability (FACS); type: cell-based
Procedure: (§2) To evaluate the effect of BV on activated T cell viability, naïve, memory, and Treg subsets were driven to proliferate in vitro in the presence of BV or control antibody-drug conjugate (ADC). Briefly, T cell subsets were mixed with CD3/CD28 beads (4:1)+IL-2 10 ng/ml in RPMI 10% FCS and distributed −2.0×10^4 cells/well into a 96-well round-bottom plate. A titration of BV or control IgG-MMAE was added to replicate wells, for a final volume of 200 μl, and plates were incubated at 37° C. for 4 days. On the final day of the assay, cells were stained with Zombie® Aqua Viability Dye and a non-competing monoclonal μCD30-PE (Biolegend) for FACS analysis. […] Cell counts are shown as the percent of untreated control.

Treg = experiment: Effect of BV on activated T cell viability (FACS); type: cell-based
Procedure: as §2

[6] = CD3/CD28 beads + IL-2, BV titration, 4 days, n=4, FIG. 1A

CYP3A4, sequence (P08684 whole entry): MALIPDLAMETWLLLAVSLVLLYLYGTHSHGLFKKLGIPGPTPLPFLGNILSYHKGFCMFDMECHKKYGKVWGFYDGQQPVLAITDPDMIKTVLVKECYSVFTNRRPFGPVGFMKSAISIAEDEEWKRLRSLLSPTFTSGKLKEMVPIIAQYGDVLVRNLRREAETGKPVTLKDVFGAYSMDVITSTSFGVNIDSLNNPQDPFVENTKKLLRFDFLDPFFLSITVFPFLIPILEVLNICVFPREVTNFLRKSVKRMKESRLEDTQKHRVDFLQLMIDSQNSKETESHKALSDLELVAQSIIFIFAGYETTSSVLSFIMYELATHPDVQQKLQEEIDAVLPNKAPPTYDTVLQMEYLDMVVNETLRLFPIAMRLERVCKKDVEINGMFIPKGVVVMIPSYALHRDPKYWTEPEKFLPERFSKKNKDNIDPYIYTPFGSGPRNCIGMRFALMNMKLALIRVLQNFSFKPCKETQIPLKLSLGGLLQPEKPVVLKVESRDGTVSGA

Molecule: CC[C@H](C)[C@@H]([C@@H](CC(=O)N1CCC[C@H]1[C@H](OC)[C@@H](C)C(=O)N[C@H](C)[C@@H](O)c1ccccc1)OC)N(C)C(=O)[C@@H](NC(=O)[C@@H](NC)C(C)C)C(C)C [MMAE, monomethyl auristatin E] (H-[NMeV]V[Dil][Dolaproine]-X1)
- metabolism (CYP3A4): primarily metabolized by CYP3A4
- Pgp substrate [1]: known Pgp substrate
- IC50 (naïve CD8 T cells): 1960 pM
- IC50 (naïve CD4 T cells): 1130 pM
- IC50 [2]: 430 pM
- IC50 (memory CD8 T cells): 770 pM
- IC50 (memory CD4 T cells [3]): 550 pM

Molecule: cAC10
- growth of CD30+ cell lines (CD30+ cell lines): induces growth arrest
- antitumor activity [4]: pronounced antitumor activity

B1: brentuximab vedotin (conjugate)
VH: QIQLQQSGPEVVKPGASVKISCKASGYTFTDYYITWVKQKPGQGLEWIGWIYPGSGNTKYNEKFKGKATLTVDTSSSTAFMQLSSLTSEDTAVYFCANYGNYWFAYWGQGTQVTVSA
VL: DIVLTQSPASLAVSLGQRATISCKASQSVDFDGDSYMNWYQQKPGQPPKVLIYAASNLESGIPARFSGSGSGTDFTLNIHPVEEEDAATYYCQQSNEDPWTFGGGTKLEIK
- change in Tregs (Tregs): reduction in Tregs
- total viable memory CD4 T cell numbers (memory CD4 T cells [5]; [6]): dose-dependent reduction
- numbers of viable CD30+ cells (memory CD4 T cells [5]; CD30+ memory CD4 T cells, end of 4-day assay, FIG. 1B): enhanced depletion
- total viable Treg cell numbers (Treg; [6]): dose-dependent reduction
- numbers of viable CD30+ cells (Treg; CD30+ Treg, end of 4-day assay, FIG. 1B): enhanced depletion

Source: patent US20230020999A1, “ANTI-CD30 ANTIBODY-DRUG CONJUGATES AND THEIR USE FOR THE TREATMENT OF HIV INFECTION” (priority 2019, published 2023)
